In PMC8035703, “Effect of Synchronous Versus Sequential Regimens on the Pharmacokinetics and Biodistribution of Regorafenib with Irradiation” (Pharmaceutics, 2021):
Like-named read-outs stand apart in the source and are kept apart here.

Legend:
Hep G2 cells = test: Cell viability assay (MTT), Hep G2; format: cell-based; settings: Homo sapiens; for IC50: MTT after 24 h, read-out: IC50 (estimated concentration at which 50% of cells were killed); for viability at 5 µM: HepG2, regorafenib 5 μM; for viability at 10 µM: HepG2, regorafenib 10 μM; for viability at 20 µM: HepG2, regorafenib 20 μM
Procedure: Human hepatoma Huh-7 and Hep G2 cell lines kindly provided by Professor Hu (Taipei Veterans General Hospital, Taiwan) were plated into 96-well plates (1 × 10^3 per well) with serum-containing medium (100 μL) for 1 day. Regorafenib at concentrations of 0, 5, 10 and 20 μmol/L (μM) was added to the plates. Then, the study groups were designed: the concurrent group (1 h after irradiation) or sequential group (24 h after irradiation) with sham RT (RT0 Gy), 2 Gy (RT2 Gy) and 9 Gy (RT9 Gy). Additionally, after 24 h, 20 μL of 5 mg/mL MTT was added to the plates and incubated for 3 h. The supernatant was discarded, the precipitate was dissolved in 200 μL DMSO, and the plates were read with a microplate reader at 570 nm and a reference wavelength of 630 nm.

Huh-7 cells = test: Morphological observation (Liu's stain); format: cell-based, human; settings: regorafenib 0-20 μM with RT
Procedure: Huh-7 cells were treated with regorafenib at concentrations of 0, 5, 10 and 20 μmol/L (μM) in the concurrent and sequential groups with different RT doses. Then, the cells were centrifuged by using Cytospin (Shandon Inc., Pittsburgh, PA). Liu’s A solution and Liu’s B solution were used on glass slides for 45 and 90 s, respectively. Then, a light microscope (Olympus, Tokyo, Japan) was used to observe the Huh-7 cells.

HA22T cells = test: Colony formation assay; format: cell-based, human
Procedure: HA22T cells kindly provided from professor Hu (Taipei Veterans General Hospital, Taiwan) were treated with trypsin to detach, counted and plated (400 per plate) into dishes measuring 60 mm, […] and allowed to grow for 10 days. Cells were stained, and colonies containing ≥ 50 cells were counted.

CNC(=O)c1cc(Oc2ccc(NC(=O)Nc3ccc(Cl)c(C(F)(F)F)c3)c(F)c2)ccn1 [regorafenib, Regorafenib]
IC50 (Hep G2 cells; HepG2, 24 h, Hep G2, RT0 Gy, S (regorafenib added 24 h following RT)): 17.7 µM
IC50 (Hep G2 cells; HepG2, 24 h, Hep G2, RT2 Gy, S (regorafenib added 24 h following RT)): 18.9 µM
IC50 (Hep G2 cells; HepG2, 24 h, Hep G2, RT9 Gy, S (regorafenib added 24 h following RT)): 16.8 µM
IC50 (Hep G2 cells; HepG2, Hep G2, RT0 Gy, C (regorafenib added 1 h following RT)): 9.87 µM
IC50 (Hep G2 cells; HepG2, Hep G2, RT2 Gy, C (regorafenib added 1 h following RT)): 10.5 µM
IC50 (Hep G2 cells; HepG2, Hep G2, RT9 Gy, C (regorafenib added 1 h following RT)): 8.43 µM
viability at 5 µM (Hep G2 cells; Hep G2, RT0 Gy, C): 74.6 ± 2.4%
viability at 5 µM (Hep G2 cells; Hep G2, RT0 Gy, S): 82 ± 1.9%
viability at 5 µM (Hep G2 cells; Hep G2, RT2 Gy, C): 73.1 ± 11.7%
viability at 5 µM (Hep G2 cells; Hep G2, RT2 Gy, S): 72.1 ± 1.7%
viability at 5 µM (Hep G2 cells; Hep G2, RT9 Gy, C): 64.7 ± 11.3%
viability at 5 µM (Hep G2 cells; Hep G2, RT9 Gy, S): 71 ± 5.3%
viability at 10 µM (Hep G2 cells; Hep G2, RT0 Gy, C): 51.3 ± 3.1%
viability at 10 µM (Hep G2 cells; Hep G2, RT0 Gy, S): 67 ± 1.3%
viability at 10 µM (Hep G2 cells; Hep G2, RT2 Gy, C): 50.8 ± 7%
viability at 10 µM (Hep G2 cells; Hep G2, RT2 Gy, S): 64.1 ± 1.3%
viability at 10 µM (Hep G2 cells; Hep G2, RT9 Gy, C): 46.7 ± 8.9%
viability at 10 µM (Hep G2 cells; Hep G2, RT9 Gy, S): 64.2 ± 4.3%
viability at 20 µM (Hep G2 cells; Hep G2, RT0 Gy, C): 24.7 ± 1.2%
viability at 20 µM (Hep G2 cells; Hep G2, RT0 Gy, S): 46 ± 3.4%
viability at 20 µM (Hep G2 cells; Hep G2, RT2 Gy, C): 24.5 ± 2.5%
viability at 20 µM (Hep G2 cells; Hep G2, RT2 Gy, S): 42.4 ± 0.8%
viability at 20 µM (Hep G2 cells; Hep G2, RT9 Gy, C): 20.6 ± 1.5%
viability at 20 µM (Hep G2 cells; Hep G2, RT9 Gy, S): 38.5 ± 1.9%
Morphological changes (in words) (Huh-7 cells): Cell shrinkage and pyknosis occurred in a dose-dependent manner
Colony formation, regorafenib with RT vs regorafenib alone (in words) (HA22T cells; regorafenib 1, 10 and 20 μM, concurrent or sequential with RT): synergic effects to inhibit the colony formation
Colony formation of HA22T (in words) (HA22T cells; regorafenib 1 to 20 μM and RT (2 and 9 Gy)): colony formation of HA22T were decreased
